The values that follow come from a melting point compilation (Tetko et al.; mined from patent text by program, amines drawn as free bases though some values may be those of a salt).

The melting point is the temperature, or range, at which the solid turns liquid.

Consider `COc1ccc(C(C)N(C)CCCOc2ccc(S(=O)(=O)c3ncc(-c4ccccc4)n3-c3ccccc3)cc2)cc1OC` (stereo not given), for which the melting point is 162 °C.
The value for `CC(=O)N1CCC(Cl)c2nc3ccccc3c(C)c2C1` (stereo not given) was less than 20 °C.
The value for `Sc1c(Cl)ccc(Cl)c1S` was 57 to 58 °C; that for `O=C(Nc1ccc2ccc(Cl)nc2n1)c1c(F)cccc1F` was 242 °C.
The value for `CCOC(=O)N1C(=O)[C@H](O)[C@@H]1c1ccccc1` was 112 to 113 °C; that for `O=S(CCO)Cc1cccnc1` (stereo not given) was 84 to 86 °C.
Take `Cc1ccc(S(=O)(=O)NC(=S)NC23CC4CC(CC(C4)C2)C3)cc1`: the melting point lay in the range of 170 to 173 °C.
As to `COC(=O)c1ccc(C=C(CBr)C(=O)OC(C)(C)C)cc1`, the melting point came out at 78 °C.
The compound `O=c1cc(N2CCOCC2)oc2c(-c3ccc(O)c(-c4ccccc4)c3)cccc12` displayed a melting point of 243 to 247 °C.
The value for `Cc1cc(NC(=O)Cc2ccsc2)nc(C)c1Br` was 211 °C; that for `CC(=O)C1(O)CCC2C3CC(C)C4=CC(=O)CCC4(C)C3(F)CCC21C` (stereo not given) was 232 to 235 °C.
The value for `CCOc1nc(NCc2ccco2)nc(Nc2ccc3[nH]cnc3c2)n1` was 110 to 112 °C; that for `CC1(C)OC(=O)Nc2c(F)cc(-c3cc(F)cc(C#N)c3)cc21` was 256 to 257 °C; that for `NC(=S)NN=Cc1c2ccccc2c(C=NNC(N)=S)c2ccccc12` was 275 to 277 °C.
The value for `Nc1nsnc1NCCCOc1cccc(CN2CCCCC2)c1` was 137 to 138 °C; that for `Clc1nc2ccccc2c2occc12` was 120 to 122 °C; that for `NNC(=O)c1ccnc2[nH]ccc12` was 239 to 240 °C.
`c1ccc(C2=NNC(c3ccccc3)C2)cc1` (stereo not given): the melting point was in the range of 194 to 199 °C.
The value for `Cc1cccc2c1nc(-c1c(F)cccc1F)n2Cc1c(F)cccc1F` was 182 to 186 °C; that for `CCCCNC(=O)Nc1ccc(OCC)cc1C(=O)NCC1CCN(C(c2ccccc2)c2ccccc2)CC1` was 191 to 193 °C; that for `Cc1cc(C)cc(C(N)=O)c1` was 148 to 149 °C.
`COc1cccc2cc(-c3ccc(OCCN4CCCC4)cc3)sc12` showed a melting point of 88 to 90 °C.
`O=C(O)c1cccc(OCc2ccc(Cl)c(Cl)c2)c1` displayed a melting point of 173 to 174 °C.
The value for `Brc1ccc(N(Cc2ccccc2)Cc2ccccc2)cc1` was 123 °C; that for `CCCCCCCc1ccc(-c2ccc(OC)cc2)nc1` was 54.4 to 56.5 °C; that for `COc1ccc(C(=O)Nc2cccc3[nH]ccc23)c(OCC2CO2)c1` (stereo not given) was 157 °C.
The value for `Cc1c(C(=O)Nc2ccc(N3CCC(N4CCOCC4)CC3)c(C#N)c2)cnn1-c1ccccn1` was 251 °C.
The value for `CNC(=O)NN(CC(=O)OC)c1cccc(OC)c1` was 145 to 146 °C.
The compound `CCn1cc(C(=O)Cl)c(=O)c2ccc(Cl)nc21` returned a melting point of 186 to 188 °C.
The value for `CC(C)CCOC(=O)COc1cc(F)ccc1C(=S)NCc1cccc([N+](=O)[O-])c1` was 56 to 58 °C.
Compound `CC(=O)OCC(=O)C12OCOC1CC1C3CCC4=CC(=O)CCC4(C)C3(F)C(O)CC12C` (stereo not given) returned a melting point of 264 to 266 °C.
The value for `Cc1cc([N+](=O)[O-])c(C)c2c1OC(C)(C)C2=O` was 124 to 126 °C; that for `CCCCCCCCCCCCCCOc1cc(OCCCCCCc2cccc(O)c2O)cc(C(=O)OC)c1` was 77 to 79 °C; that for `Cc1nc(N2CCN(Cc3ccc(F)cc3)C2=O)sc1C(=O)NCc1ncco1` was 187 to 189 °C.
The value for `CCCCCCCCCCCC=CC(O)C(COC1OC(CO)C(O)C(O)C1O)NC(=O)CCCCCCCCCCCCCCC` (stereo not given) was 207 to 209 °C.
The value for `CC(C)(C)C(=O)OC(COc1cccc2[nH]nnc12)CN1CCC(COc2ccccc2)CC1` (stereo not given) was 131 to 133 °C; that for `NC(=O)Nc1ccc2c(c1)N1CCCN=C1S2` was 246 °C; that for `CC1(C(=O)c2c[nH]c3ncc(-c4cccc(N5CCCC5)c4)nc23)CCCCCC1` was 192 to 193 °C.
Regarding `O=[N+]([O-])c1ccccc1-c1cc(F)c(F)c(F)c1`, the melting point was 79 °C.
The value for `CCc1cnc(N2CCC(c3nc4cc(-c5ccc(S(C)(=O)=O)cc5F)ccc4o3)CC2)nc1` was 247 to 250 °C; that for `O=C1[C@H]2CCC[C@H]2N(C(=O)CCl)c2ccccc2N1Cc1ccccc1` (relative stereo) was 154 to 156 °C; that for `CC(C)(C)OC(=O)CC1=CCCCC1n1nc(-c2c(-c3ccccc3)nn3ccccc23)ccc1=O` (stereo not given) was 146 to 147 °C.
Compound `Cc1cc2c(s1)S(=O)(=O)NC2=O` returned a melting point of 231 °C.
The value for `CCN(CCOC)C(=O)c1cc(-c2ccccc2)c(=O)n2c1-c1ccccc1C2` was 139 to 140 °C; that for `O=C(C=Cc1cccs1)Nc1nnn[nH]1` was 287 °C.
The value for `CC(=O)N1CCN(c2cccc(O)c2)CC1` was 186 °C; that for `COc1cc(C(O)(C(F)(F)F)C(F)(F)F)cc(C)c1NS(C)(=O)=O` was 109 to 110 °C.
The value for `C=CC(=O)OCCCCCCC[C@H]1CC[C@H](c2cccc(F)c2F)CC1` was 34 to 35.3 °C; that for `COc1ccc(N2CCN(c3c(C)c(C)c4c(c3C)C(NCc3ccccc3)C(C)(C)O4)CC2)cc1` (stereo not given) was 93 to 95 °C; that for `COc1cccc2c1C(c1ccc(Cl)cc1)NC(=O)C2` (stereo not given) was 250 to 251 °C.
Take `COc1ccc(C(=O)NCCCCCCCNC(=O)c2ccc(OC)c(OC)c2)cc1OC`: the melting point was 160 to 161 °C.
The value for `COC(=O)Cc1ccccc1NC(=S)N(C)NC(=O)c1ccccc1` was 148 to 150 °C; that for `CCCCCC(=O)SC1CCN(C(C(=O)C2CC2)c2ccccc2F)CC1` (stereo not given) was 64 to 65 °C; that for `N#Cc1csc2ccccc12` was 67 to 69 °C.
The value for `CCCCCC1C=CC(c2ccc(F)c(F)c2)=CC1` (stereo not given) was 31 °C; that for `CCN(CCO)C(=O)c1ccc(C(=O)N2CCN(c3ncccc3NC(C)C)CC2)cc1` was 115 °C.
The value for `Cc1cc(CN2CCNC2=C[N+](=O)[O-])on1` was 168 to 170 °C; that for `CCc1cc2[nH]c(=O)c(=O)[nH]c2c(N(CC(=O)OC)S(C)(=O)=O)c1Cl` was 296 to 299 °C; that for `O=c1ccn(CCO)c(C(O)c2cccs2)c1OCc1ccccc1` (stereo not given) was 194 to 196 °C.
Regarding `O=C(Nc1ncc(C(F)(F)F)o1)C1c2ccccc2Oc2c(F)cccc21` (racemic), the melting point is 228 °C.
The value for `NC(=O)CCc1conc1-c1ccc(Cl)cc1` was 158 to 159 °C.
The value for `O=C(O)CCc1oc(SCc2cccnc2)nc1-c1ccc(Cl)cc1` was 129 to 130 °C.
The value for `Cc1cccc(C=NN2CCN(C(c3ccccc3)c3ccccc3)CC2)n1` was 130 to 132 °C; that for `NS(=O)(=O)c1cc2sc(C=O)cc2s1` was 203 to 204 °C.
`C=C(C)c1ccncc1-c1c(O)cc(C(C)C(C)CCCCC)cc1O` (stereo not given) came in with a melting point of 128 to 129 °C.
The value for `Cc1cc(C(C)(C)C)c(O)c(C)c1COC(=O)c1cccc(C(=O)OCc2c(C)cc(C(C)(C)C)c(O)c2C)c1` was 155 to 156 °C; that for `C/C=C/CONC(=O)c1nc(-c2ccc(Cl)c(OC)c2F)cc(N)c1Cl` was 154 to 156 °C.
Regarding `O=c1c(-c2ccc(F)cc2)coc2cc(O)c(O)cc12`, the melting point was 296 °C.
The value for `N#CCCNC(=O)c1cccc(Br)c1` was 100 to 101 °C; that for `COC(=O)C1(C)CN(C(=O)Nc2ccc(Cl)cn2)N=C1c1ccc(Cl)cc1` (stereo not given) was 130 to 146 °C.
The value for `CC(C)n1c(CO)c(-c2ccc(F)cc2)c(-c2ccccc2)c1C(=O)NCCc1cccnc1` was 167 to 169 °C; that for `CC(C)c1ccc(C(=O)C23CC4CC(CC(C4)C2)C3)c(C(C)C)c1OS(N)(=O)=O` was 165 to 167 °C; that for `CC(C)(C)C(NC(=O)Cc1ccc(C#N)cc1)NC(=NC#N)Nc1cccc2ncccc12` (stereo not given) was 194 to 196 °C.
The value for `CCOC(=O)C1=CC(=O)C2(C(=O)c3ccc(Cl)cc3)OC2O1` (stereo not given) was 100 °C; that for `CCOC(=O)c1cc2c(=O)n(-c3ccccc3)c3ccccc3n2c1` was 256 to 259 °C; that for `CCN1CCOc2nc(Cl)c(Cl)nc21` was 108 to 110 °C.
`CCC(C)NC(=O)c1ncc(C)cc1C(N)=O` (stereo not given) returned a melting point of 119 to 123 °C.
The value for `CC1(C)CN=C(c2cc3cc(F)cc(NS(=O)(=O)c4cccs4)c3[nH]2)S1` was 175 to 176 °C.
The value for `Cc1cc(Sc2ccccc2)ccc1N` was 64 to 65 °C.
Consider `O=C1NC(N2CCCCCC2)=N/C1=C\c1c[nH]c2ncc(-c3ccccc3)cc12`, for which the melting point was 302 °C.
The value for `CCOC(=O)C1CN(C(=O)C(C)(C)C)CCC1=O` (stereo not given) was 46 to 50 °C.
Turning to `CC(C)(C)OC(=O)N[C@@H](Cc1ccc(O)cc1)C(=O)NCCCN1CCN(CCCNc2cccc3c2C(=O)c2ccccc2C3=O)CC1`, the melting point came to 102 °C.
The value for `CC1(C)CC(NC(=O)ON(Cc2ccccc2)Cc2ccccc2)CC(C)(CNC(=O)ON(Cc2ccccc2)Cc2ccccc2)C1` (stereo not given) was 139 to 146 °C.
The compound `CC(COc1ccc(CC2SC(=O)N(C(c3ccccc3)(c3ccccc3)c3ccccc3)C2=O)cc1)N1CC(COc2cccc(Cl)c2)OC1=O` (stereo not given) gave a melting point of 74 to 81 °C.
`Cc1ccc2c(c1)CCO2` had a melting point of 45 to 48 °C.
The value for `O=C(c1ccc(OCC2CO2)cc1)c1cccc2[nH]ccc12` (stereo not given) was 96 °C; that for `O=S(=O)(c1cccs1)N1CCc2[nH]c3c(cnc4cc(Cl)ccc43)c2C1` was more than 250 °C; that for `COc1cc2c(Nc3ccc(Cl)cc3F)ncnc2cc1O` was 141 to 143 °C.
The value for `CC(C)(C)c1n[nH]c2c1C(C1CCCCC1)N(c1ccc(-c3ccon3)cc1)C2=O` (stereo not given) was 251 to 252 °C; that for `Cc1c([N+](=O)[O-])ccc2c1CCN2` was 169 to 171 °C.
